Reference: the NIST ThermoML archive (doi:10.1016/j.jct.2015.03.017)

Test: mn = molality of the nth substance listed, in mol/kg
Conditions: 74.66 kPa, Liquid; for speed of sound: Frequency=3 MHz, Sing-around technique in a fixed-path interferometer; for mass density: Vibrating tube method

CCC(C)[N+](C(C)CC)(C(C)CC)C(C)CC.[Br-] (stereo unspecified) [tetra-sec-butyl ammonium bromide] + O
Conditions	mass density, 278.15 K [kg/m3]	mass density, 283.15 K [kg/m3]	mass density, 288.15 K [kg/m3]	mass density, 293.15 K [kg/m3]	speed of sound, 278.15 K [m/s]	speed of sound, 283.15 K [m/s]	speed of sound, 288.15 K [m/s]	speed of sound, 293.15 K [m/s]	speed of sound, 298.15 K [m/s]
m1 = 0.009699	1000.43	1000.15	999.553	998.653	1429.9	1450.7	1469	1485.1	1499
m1 = 0.01981	1000.92	1000.64	1000.03	999.127	1432.6	1453.1	1471.2	1487.4	1500.9
m1 = 0.03014	–	–	–	–	1435.2	1455.5	1473.4	1489.2	1503
m1 = 0.04066	1002	1001.68	1001.04	1000.12	1438.2	1458.2	1475.9	1491.5	1505.2
m1 = 0.04983	1002.49	1002.14	1001.5	1000.59	1440.2	1460.1	1477.6	1493.1	1506.5
m1 = 0.0598	1003.02	1002.66	1002	1001.08	1443.3	1463	1480.4	1495.4	1508.3
m1 = 0.07027	1003.58	1003.21	1002.55	1001.63	1445.7	1465.7	1483.2	1497.7	1510.9
m1 = 0.07997	1004.11	1003.75	1003.08	1002.12	1448.5	1468.4	1485	1499.7	1512
m1 = 0.08984	1004.68	1004.31	1003.61	1002.64	1451.4	1471.3	1488	1501.6	1514.2
m1 = 0.1018	1005.32	1004.97	1004.26	1003.28	1454.9	1474.9	1490.9	1504	1516

CCCC[N+](CCCC)(CCCC)CCCC.[Br-] [tetrabutylammonium bromide] + O
Conditions	mass density, 278.15 K [kg/m3]	mass density, 283.15 K [kg/m3]	mass density, 288.15 K [kg/m3]	mass density, 293.15 K [kg/m3]	speed of sound, 278.15 K [m/s]	speed of sound, 283.15 K [m/s]	speed of sound, 288.15 K [m/s]	speed of sound, 293.15 K [m/s]	speed of sound, 298.15 K [m/s]
m1 = 0.01142	1000.27	999.991	999.38	998.474	1432	1452.5	1470.9	1487.1	1501.3
m1 = 0.02179	1000.55	1000.26	999.637	998.721	–	–	–	–	–
m1 = 0.02564	1000.66	1000.36	999.733	998.812	1436.7	1457.5	1475.5	1491.3	1504.8
m1 = 0.03767	1000.97	1000.66	1000.02	999.087	1439.6	1459.7	1477.4	1492.9	1506.4
m1 = 0.0459	1001.19	1000.87	1000.23	999.287	1442.7	1462.5	1480.1	1495.5	1508.9
m1 = 0.05856	1001.55	1001.21	1000.54	999.585	1446.1	1465.7	1482.9	1498.1	1511.7
m1 = 0.0711	1001.86	1001.51	1000.83	999.857	1450	1469.4	1486.4	1501.3	1514.3
m1 = 0.07968	1002.09	1001.73	1001.04	1000.05	1453	1472.2	1489.1	1504	1516.9
m1 = 0.09066	1002.42	1002.04	1001.33	1000.34	1455.7	1474.4	1491	1505.4	1517.9
m1 = 0.1003	1002.67	1002.28	1001.54	1000.54	1458	1476.6	1493	1507.3	1519.7

CCCC[N+](CCCC)(CC(C)C)CC(C)C.[Br-] [N-butyl-N,N-bis(2-methylpropyl)-1-butanaminium bromide] + O
Conditions	mass density, 278.15 K [kg/m3]	mass density, 283.15 K [kg/m3]	mass density, 288.15 K [kg/m3]	mass density, 293.15 K [kg/m3]	speed of sound, 278.15 K [m/s]	speed of sound, 283.15 K [m/s]	speed of sound, 288.15 K [m/s]	speed of sound, 293.15 K [m/s]	speed of sound, 298.15 K [m/s]
m1 = 0.01065	1000.5	1000.23	999.628	998.731	1431.7	1452	1469.2	1485.3	1499.3
m1 = 0.01998	1000.98	1000.71	1000.11	999.207	1433.3	1453.7	1471.8	1487.8	1501.8
m1 = 0.0287	1001.44	1001.16	1000.55	999.654	1435.3	1455.5	1473.4	1489.1	1502.9
m1 = 0.03816	1001.92	1001.65	1001.04	1000.13	–	–	–	–	–
m1 = 0.04991	1002.55	1002.27	1001.65	1000.74	1440.2	1460	1477.6	1493	1506.5
m1 = 0.05935	1003.05	1002.75	1002.13	1001.22	1443	1462.6	1479.9	1495.1	1508.5
m1 = 0.06884	1003.54	1003.25	1002.62	1001.71	1446.3	1465.8	1483.1	1498.3	1511.6
m1 = 0.08078	1004.18	1003.88	1003.25	1002.33	1449	1468.1	1485.2	1500.2	1513.4
m1 = 0.0922	1004.77	1004.47	1003.83	1002.91	1451.4	1470.1	1486.8	1501.5	1514.3
m1 = 0.1044	1005.43	1005.11	1004.46	1003.53	1453.6	1472.4	1488.9	1503.4	1516

CCCC[N+](CCCC)(C(C)CC)C(C)CC.[Br-] (stereo unspecified) [N-butyl-N,N-bis(1-methylpropyl)-1-butanaminium bromide] + O
Conditions	mass density, 278.15 K [kg/m3]	mass density, 283.15 K [kg/m3]	mass density, 288.15 K [kg/m3]	mass density, 293.15 K [kg/m3]	speed of sound, 278.15 K [m/s]	speed of sound, 283.15 K [m/s]	speed of sound, 288.15 K [m/s]	speed of sound, 293.15 K [m/s]	speed of sound, 298.15 K [m/s]
m1 = 0.01181	1000.58	1000.3	999.698	998.799	1431.4	1452	1470.2	1486.2	1500.2
m1 = 0.02026	1001.03	1000.75	1000.13	999.231	1433.3	1453.8	1472	1488	1502.1
m1 = 0.03102	1001.6	1001.32	1000.7	999.791	1435.8	1456.1	1474.1	1489.9	1503.9
m1 = 0.04017	1002.1	1001.81	1001.19	1000.28	1438.2	1458.3	1476	1491.6	1505.3
m1 = 0.05043	1002.66	1002.36	1001.73	1000.81	1440	1459.8	1477.4	1492.9	1506.4
m1 = 0.0598	1003.17	1002.87	1002.24	1001.32	1442.6	1462.2	1479.5	1494.8	1508.4
m1 = 0.06968	1003.71	1003.41	1002.76	1001.84	1445	1464.4	1481.6	1496.6	1509.9
m1 = 0.08191	1004.37	1004.06	1003.42	1002.5	1447.4	1466.7	1483.7	1498.7	1511.8
m1 = 0.09038	1004.85	1004.53	1003.89	1002.96	1450.6	1469.6	1486.4	1501.1	1514
m1 = 0.1036	1005.56	1005.25	1004.59	1003.66	1453.5	1472.2	1488.9	1503.7	1516.5

CC(C)C[N+](CC(C)C)(CC(C)C)CC(C)C.[Br-] [tetra-iso-butyl ammonium bromide] + O
Conditions	mass density, 278.15 K [kg/m3]	mass density, 283.15 K [kg/m3]	mass density, 288.15 K [kg/m3]	mass density, 293.15 K [kg/m3]	speed of sound, 278.15 K [m/s]	speed of sound, 283.15 K [m/s]	speed of sound, 288.15 K [m/s]	speed of sound, 293.15 K [m/s]	speed of sound, 298.15 K [m/s]
m1 = 0.01022	1000.51	1000.24	999.634	998.735	–	–	–	–	–
m1 = 0.02021	1001.05	1000.77	1000.16	999.258	1434	1454.4	1472.5	1488.5	1502.6
m1 = 0.02983	1001.57	1001.29	1000.67	999.758	1437	1457	1475	1490.5	1503.3
m1 = 0.03847	1002.04	1001.75	1001.12	1000.21	1438.5	1458.5	1476.2	1491.8	1505.5
m1 = 0.04829	1002.57	1002.27	1001.63	1000.71	1441.3	1461.2	1478.9	1494.5	1508.1
m1 = 0.05621	1002.99	1002.68	1002.04	1001.11	1443.4	1463.6	1480.5	1495.7	1509.7
m1 = 0.06888	1003.67	1003.34	1002.7	1001.76	1447	1466.5	1483.8	1498.9	1512.2
m1 = 0.07666	1004.08	1003.76	1003.1	1002.16	1448.2	1467.5	1484.6	1499.7	1512.9
m1 = 0.08623	1004.6	1004.26	1003.6	1002.64	1451.5	1469.4	1486.2	1500.9	1513.8
m1 = 0.1002	1005.35	1005	1004.33	1003.37	1453.7	1472.5	1489.2	1503.9	1516.7
